Assay results from patent publication US10407395B2, “Benzimidazole compound and medical use thereof” (Sumitomo Dainippon Pharma Co., Ltd., priority 2015, dated 2019).
Like-named read-outs stand apart in the source and are kept apart here.

What was measured:
human SCN9A (Nav 1.7) = human SCN9A (Nav 1.7) (Homo sapiens, UniProt Q15858); assay: Measurement of Na ion current (Nav 1.7) by automated patch clamp assay in cells stably-expressing human SCN9A; assay type: cell-based; details: read-out: Inhibitory rate (%) of Na ion current
Sequence of human SCN9A (Nav 1.7) (Q15858 whole entry): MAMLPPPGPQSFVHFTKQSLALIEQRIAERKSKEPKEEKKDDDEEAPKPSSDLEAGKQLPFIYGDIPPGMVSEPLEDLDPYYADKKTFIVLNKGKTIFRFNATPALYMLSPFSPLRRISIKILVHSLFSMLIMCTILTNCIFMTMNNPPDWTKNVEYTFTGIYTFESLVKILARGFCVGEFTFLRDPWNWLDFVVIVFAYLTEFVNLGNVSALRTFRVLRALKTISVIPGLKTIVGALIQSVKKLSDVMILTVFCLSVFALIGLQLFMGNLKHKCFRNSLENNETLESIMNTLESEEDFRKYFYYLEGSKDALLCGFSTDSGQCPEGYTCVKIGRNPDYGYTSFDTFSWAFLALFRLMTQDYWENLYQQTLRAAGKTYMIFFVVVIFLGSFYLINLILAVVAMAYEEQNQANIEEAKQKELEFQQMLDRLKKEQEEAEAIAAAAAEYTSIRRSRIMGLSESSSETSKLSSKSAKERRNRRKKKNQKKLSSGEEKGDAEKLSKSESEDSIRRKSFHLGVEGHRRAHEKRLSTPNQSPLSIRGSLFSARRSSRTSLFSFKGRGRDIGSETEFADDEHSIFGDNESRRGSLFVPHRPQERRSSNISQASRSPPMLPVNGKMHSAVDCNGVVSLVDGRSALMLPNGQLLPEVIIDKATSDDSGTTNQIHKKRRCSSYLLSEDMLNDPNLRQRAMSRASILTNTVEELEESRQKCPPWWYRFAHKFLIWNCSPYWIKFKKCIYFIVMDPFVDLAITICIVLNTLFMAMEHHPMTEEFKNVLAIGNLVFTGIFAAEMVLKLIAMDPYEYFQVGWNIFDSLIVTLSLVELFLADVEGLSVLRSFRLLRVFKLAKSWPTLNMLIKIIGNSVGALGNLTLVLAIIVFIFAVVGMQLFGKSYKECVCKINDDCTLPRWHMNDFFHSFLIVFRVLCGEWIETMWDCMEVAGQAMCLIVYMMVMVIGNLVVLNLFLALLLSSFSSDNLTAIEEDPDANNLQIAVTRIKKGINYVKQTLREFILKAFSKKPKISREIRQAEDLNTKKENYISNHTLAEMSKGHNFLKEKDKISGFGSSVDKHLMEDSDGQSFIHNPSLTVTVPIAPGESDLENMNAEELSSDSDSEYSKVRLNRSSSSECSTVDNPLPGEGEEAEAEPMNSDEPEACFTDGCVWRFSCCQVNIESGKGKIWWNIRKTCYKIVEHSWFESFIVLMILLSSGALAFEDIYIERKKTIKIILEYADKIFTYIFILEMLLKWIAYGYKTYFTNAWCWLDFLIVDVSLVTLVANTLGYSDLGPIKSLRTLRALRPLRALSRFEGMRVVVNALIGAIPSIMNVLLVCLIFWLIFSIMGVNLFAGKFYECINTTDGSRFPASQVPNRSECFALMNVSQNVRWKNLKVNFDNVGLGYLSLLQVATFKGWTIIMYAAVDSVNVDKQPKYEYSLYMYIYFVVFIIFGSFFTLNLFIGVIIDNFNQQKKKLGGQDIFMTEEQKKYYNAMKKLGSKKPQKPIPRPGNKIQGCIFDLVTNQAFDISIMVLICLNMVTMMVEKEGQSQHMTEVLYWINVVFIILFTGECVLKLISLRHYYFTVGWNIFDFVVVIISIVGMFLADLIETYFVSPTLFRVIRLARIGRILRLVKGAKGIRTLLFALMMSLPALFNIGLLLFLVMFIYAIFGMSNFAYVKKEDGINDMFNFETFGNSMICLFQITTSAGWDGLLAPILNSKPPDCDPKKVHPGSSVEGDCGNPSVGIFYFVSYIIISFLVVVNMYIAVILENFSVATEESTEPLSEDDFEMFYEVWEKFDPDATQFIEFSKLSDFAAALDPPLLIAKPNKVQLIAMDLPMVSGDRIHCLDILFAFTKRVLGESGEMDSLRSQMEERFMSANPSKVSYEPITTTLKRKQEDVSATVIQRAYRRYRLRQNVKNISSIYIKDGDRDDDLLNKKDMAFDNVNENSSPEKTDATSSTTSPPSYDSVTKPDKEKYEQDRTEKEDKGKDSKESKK
Summary of the method: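 Tetracycline-inducible cells stably expressing human SCN9A were recorded by automated patch clamp at room temperature. Inhibition rate derived from peak Na current evoked by depolarizing pulse, compared with and without test compound.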

[1] = tested on: rats streptozotocin (STZ)-induced diabetic peripheral neuropathy model; assay: Evaluation of analgesic effect (von Frey test) in streptozotocin-induced diabetic peripheral neuropathy model; assay type: in vivo, rat; details: male Wistar rats, 3 mg/kg of body weight, orally, one hour before measuring
Protocol: Test (2) Evaluation of Analgesic Effect in Streptozotocin-Induced Diabetic Peripheral Neuropathy Models
Using some typical compounds among the compounds of the present invention, the inhibitory effect for neuropathic pain was determined through the evaluation of analgesic effect in rats streptozotocin (STZ)-induced diabetic peripheral neuropathy model.
The disease animal model was prepared by means of a partially-modified method of Fox et al. (Pain 81, 307-316, 1999). STZ was intraperitoneally administered to 9-week old male Wistar rats in 45 mg/kg of body weight to prepare animal model suffering from diabetic peripheral neuropathy. The analgesic effect was evaluated by von Frey test. Specifically, mechanical sensitivity was measured by applying hairs (von Frey hair) to the plantar surface of the animal's hind paw, and then the reaction thresholds (50% paw withdrawal thresholds) for the mechanical stimulation was determined by using a formula based on Chaplan et al. (Journal of Neuroscience Methods 53, 55-63, 1994).
One and two days before evaluating the test compounds, the reaction thresholds were measured to obtain an average thereof, and the average value was used as a reference value obtained before the test compounds would be administered.
In order to reduce the variations of the averaged values among the test groups and the measured values in each group, the animals were divided into 4 to 5 groups.
In the evaluation test of the test compounds, the reaction thresholds were measured after administering each test compound. One hour before measuring the reaction thresholds, each test compound was administered in 3 mg/kg of body weight. The strength of analgesic effect of each test compound is expressed as the extension width (g) of reaction thresholds which is obtained by the calculation formula of (reaction threshold obtained after administering test compound)−(reaction threshold obtained before administering test compound).

[2] = compound concentration 10 μmol/L, holding potential inactivating 50% Nav 1.7 channel (around −60 mV)

inhibition at 10 µM (human SCN9A (Nav 1.7); [2])	Compound	extension width (g) of reaction thresholds (50% paw withdrawal threshold after minus before administering test compound) [1]	inhibition at 10 µM (human SCN9A (Nav 1.7))
83%	CC(C)(O)Cn1cnc2ccc(Oc3ccc(F)cc3)cc21 [Example 1, 1-[6-(4-fluorophenoxy)-1H-benzimidazol-1-yl]-2-methylpropan-2-ol]	2.8 g	
	CC(C)(O)Cn1cnc2ccc(Oc3ccc(Cl)cc3)cc21 [Example 20, 1-[6-(4-chlorophenoxy)-1H-benzimidazol-1-yl]-2-methylpropan-2-ol]	2.9 g	91%
82%	CC(C)(O)Cn1cnc2ccc(Oc3ccc(C(F)(F)F)cn3)cc21 [Example 28, 2-methyl-1-(6-{[5-(trifluoromethyl)pyridin-2-yl]oxy}-1H-benzimidazol-1-yl)propan-2-ol]	6 g	
49%	CC(C)(O)CCn1cnc2ccc(Oc3ccc(C(F)(F)F)cn3)cc21 [Example 59, 2-methyl-4-(6-{[5-(trifluoromethyl)pyridin-2-yl]oxy}-1H-benzimidazol-1-yl)butan-2-ol]	5.1 g	
73%	OC1(Cn2cnc3ccc(Oc4ccc(OC(F)(F)F)cc4)cc32)COC1 [Example 94, 3-({6-[4-(trifluoromethoxy)phenoxy]-1H-benzimidazol-1-yl}methyl)oxetan-3-ol]	4.9 g	
43%	CC(C)(O)CCn1cnc2ccc(Oc3ccc(Cl)cc3)cc21 [Example 101, 4-[6-(4-chlorophenoxy)-1H-benzimidazol-1-yl]-2-methylbutan-2-ol]	1.4 g	
33%	O[C@H]1CC[C@@H](n2cnc3ccc(Oc4ccc(C(F)(F)F)cn4)cc32)CC1 [Example 118, cis-4-(6-{[5-(trifluoromethyl)pyridin-2-yl]oxy}-1H-benzimidazol-1-yl)cyclohexanol]	3.4 g	
64%	CC(C)(O)Cn1cnc2ccc(-c3ccc(C(F)(F)F)cc3F)cc21 [Example 123, 1-{6-[2-fluoro-4-(trifluoromethyl)phenyl]-1H-benzimidazol-1-yl}-2-methylpropan-2-ol]	1.3 g	
59%	COc1cc(C(F)(F)F)ccc1-c1ccc2ncn(CC3(O)COC3)c2c1 [Example 148, 3-({6-[2-methoxy-4-(trifluoromethyl)phenyl]-1H-benzimidazol-1-yl}methyl)oxetan-3-ol]	3.7 g	
61%	CC(C)(O)Cn1cnc2cc(-c3ccc(OC(F)(F)F)cc3)ccc21 [Example 179, 2-methyl-1-{5-[4-(trifluoromethoxy)phenyl]-1H-benzimidazol-1-yl}propan-2-ol]	6.5 g	
45%	CC(C)(O)Cn1cnc2cc(-c3ccc(C(F)(F)F)cc3F)ccc21 [Example 181, 1-{5-[2-fluoro-4-(trifluoromethyl)phenyl]-1H-benzimidazol-1-yl}-2-methylpropan-2-ol]	2.5 g	
46%	COc1cc(C(F)(F)F)ccc1-c1ccc2c(c1)ncn2CC1(O)COC1 [Example 205, 3-({5-[2-methoxy-4-(trifluoromethyl)phenyl]-1H-benzimidazol-1-yl}methyl)oxetan-3-ol]	1.6 g	
32%	C[C@H](n1cnc2ccc(Oc3ccc(C(F)(F)F)cn3)cc21)C(C)(C)O [Example 229, (3S)-2-methyl-3-(6-{[5-(trifluoromethyl)pyridin-2-yl]oxy}-1H-benzimidazol-1-yl)butan-2-ol]	3.9 g	
